HELM strings list units from the 5' end as sugar, base in round brackets, then linkage (d deoxyribose, r ribose, m 2'-O-methyl, p phosphodiester). Strings are as the collection lists them; they lack the last nucleoside at the 3' end of the tested compound. [moe] = 2'-O-(2-methoxyethyl) (MOE); [sp] = phosphorothioate linkage; [m5C] = 5-methylcytosine

The target of the data set is UBE3A-ATS. In words: mouse, dose not given. As to conditions: ASO.
Consider “RNA1{[moe]([m5C])[sp].[moe]([m5C])p.[moe]([m5C])p.[moe](A)p.[moe](T)p.d(T)[sp].d([m5C])[sp].d(A)[sp].d(G)[sp].d([m5C])[sp].d(A)[sp].d([m5C])[sp].d(T)[sp].d(T)[sp].d(A)[sp].[moe](G)p.[moe](G)p.[moe](T)[sp].[moe](A)}$$$$ (last 3' nucleoside missing)”, for which the 3 h FOB score was determined as 4.8 score 0-7.

As to “RNA1{[moe]([m5C])[sp].[moe](A)p.[moe]([m5C])p.[moe](T)p.[moe]([m5C])p.d(T)[sp].d(A)[sp].d(T)[sp].d(A)[sp].d(G)[sp].d(G)[sp].d(T)[sp].d(T)[sp].d([m5C])[sp].d(A)[sp].[moe](A)p.[moe](G)p.[moe]([m5C])[sp].[moe](A)}$$$$ (last 3' nucleoside missing)”, the 3 h FOB score was 4 score 0-7.

Turning to “RNA1{[moe](T)[sp].[moe]([m5C])[sp].[moe]([m5C])[sp].[moe](T)[sp].[moe](T)[sp].d(T)[sp].d(A)[sp].d(G)[sp].d([m5C])[sp].d(A)[sp].d(T)[sp].d(T)[sp].d(T)[sp].d([m5C])[sp].d(T)[sp].[moe](A)[sp].[moe](T)[sp].[moe](T)[sp].[moe](A)}$$$$ (last 3' nucleoside missing)”, the 3 h FOB score amounted to 6.5 score 0-7.

With “RNA1{[moe]([m5C])[sp].[moe](T)p.[moe]([m5C])p.[moe](A)p.[moe](G)p.[moe](T)[sp].d(T)[sp].d(A)[sp].d(G)[sp].d(G)[sp].d(T)[sp].d(T)[sp].d(A)[sp].d(G)[sp].[moe](T)p.[moe](G)[sp].[moe]([m5C])}$$$$ (last 3' nucleoside missing)”, the 3 h FOB score is 6.3 score 0-7.

“RNA1{[moe](G)[sp].[moe](A)p.[moe](T)p.[moe]([m5C])p.[moe](A)p.[moe]([m5C])p.d(A)[sp].d(T)[sp].d(T)[sp].d(A)[sp].d([m5C])[sp].d([m5C])[sp].d([m5C])[sp].d(A)[sp].d(T)[sp].d([m5C])[sp].[moe]([m5C])p.[moe](G)[sp].[moe](T)}$$$$ (last 3' nucleoside missing)” displayed a 3 h FOB score of 0 score 0-7.

“RNA1{[moe](T)[sp].[moe]([m5C])p.[moe](A)p.[moe](T)p.[moe](T)p.d(A)[sp].d(T)[sp].d(T)[sp].d([m5C])[sp].d(T)[sp].d([m5C])[sp].d(T)[sp].d(A)[sp].d(G)[sp].d(T)[sp].[moe](G)p.[moe]([m5C])p.[moe]([m5C])[sp].[moe](T)}$$$$ (last 3' nucleoside missing)” gave a 3 h FOB score of 1 score 0-7.

On to “RNA1{[moe](T)[sp].[moe](T)p.[moe](T)p.[moe](A)p.[moe](T)p.d(A)[sp].d([m5C])[sp].d(T)[sp].d(T)[sp].d(T)[sp].d(A)[sp].d([m5C])[sp].d([m5C])[sp].d([m5C])[sp].d(A)[sp].[moe](A)p.[moe]([m5C])p.[moe](T)[sp].[moe](T)}$$$$ (last 3' nucleoside missing)”, for which the 3 h FOB score stood at 0 score 0-7.

Regarding “RNA1{[moe](T)[sp].[moe]([m5C])p.[moe](A)p.[moe](T)p.[moe]([m5C])p.[moe](T)[sp].d([m5C])[sp].d(G)[sp].d(G)[sp].d(G)[sp].d(T)[sp].d(A)[sp].d(T)[sp].d(A)[sp].[moe](T)p.[moe](A)[sp].[moe](A)}$$$$ (last 3' nucleoside missing)”, the 3 h FOB score is 2.3 score 0-7.

For “RNA1{[moe]([m5C])[sp].[moe](A)p.[moe](G)p.[moe](T)[sp].d(T)[sp].d(A)[sp].d(G)[sp].d(G)[sp].d(T)[sp].d(T)[sp].d(A)[sp].d(G)[sp].[moe](T)p.[moe](G)p.[moe]([m5C])p.[moe](A)[sp].[moe]([m5C])}$$$$ (last 3' nucleoside missing)”, the 3 h FOB score was determined as 2 score 0-7.

“RNA1{[moe](T)[sp].[moe](G)p.[moe](G)p.[moe](T)[sp].d([m5C])[sp].d(A)[sp].d(T)[sp].d([m5C])[sp].d(T)[sp].d([m5C])[sp].d(G)[sp].d(G)[sp].[moe](G)p.[moe](T)p.[moe](A)p.[moe](T)[sp].[moe](A)}$$$$ (last 3' nucleoside missing)” showed a 3 h FOB score of 4.7 score 0-7.

Substance “RNA1{[moe](T)[sp].[moe](A)p.[moe](A)p.[moe](G)p.[moe](T)p.d(A)[sp].d(T)[sp].d(A)[sp].d(G)[sp].d(A)[sp].d(T)[sp].d(G)[sp].d([m5C])[sp].d([m5C])[sp].d(T)[sp].[moe]([m5C])p.[moe](T)p.[moe]([m5C])[sp].[moe]([m5C])}$$$$ (last 3' nucleoside missing)” displayed a 3 h FOB score of 3.7 score 0-7.

As to “RNA1{[moe](G)[sp].[moe](G)p.[moe](T)p.[moe](T)p.[moe](T)p.d(A)[sp].d(G)[sp].d(T)[sp].d(G)[sp].d(T)[sp].d([m5C])[sp].d(A)[sp].d(T)[sp].d(A)[sp].d(T)[sp].[moe](G)p.[moe](T)p.[moe](A)[sp].[moe](G)}$$$$ (last 3' nucleoside missing)”, the 3 h FOB score is 5.5 score 0-7.

In turn, “RNA1{[moe](G)[sp].[moe]([m5C])p.[moe](T)p.[moe]([m5C])p.[moe](A)p.[moe](G)[sp].d(T)[sp].d(T)[sp].d(A)[sp].d(G)[sp].d(G)[sp].d(T)[sp].d(T)[sp].d(A)[sp].[moe](G)p.[moe](T)[sp].[moe](G)}$$$$ (last 3' nucleoside missing)” returned a 3 h FOB score of 5 score 0-7.

Substance “RNA1{[moe](G)[sp].[moe](G)p.[moe](G)p.[moe](T)p.[moe](A)p.d(G)[sp].d(A)[sp].d(A)[sp].d(G)[sp].d(A)[sp].d([m5C])[sp].d(T)[sp].d(A)[sp].d(G)[sp].d([m5C])[sp].[moe](A)p.[moe](T)p.[moe](A)[sp].[moe]([m5C])}$$$$ (last 3' nucleoside missing)” displayed a 3 h FOB score of 5.8 score 0-7.

Substance “RNA1{[moe](G)[sp].[moe]([m5C])p.[moe](T)p.[moe](G)p.[moe](A)[sp].d(T)[sp].d([m5C])[sp].d(A)[sp].d([m5C])[sp].d(A)[sp].d(T)[sp].d(T)[sp].d(A)[sp].[moe]([m5C])p.[moe]([m5C])p.[moe]([m5C])[sp].[moe](A)}$$$$ (last 3' nucleoside missing)” returned a 3 h FOB score of 1 score 0-7.

For the substance “RNA1{[moe](A)[sp].[moe](A)p.[moe]([m5C])p.[moe](G)p.d([m5C])[sp].d(A)[sp].d(A)[sp].d(T)[sp].d(G)[sp].d(T)[sp].d(A)[sp].d(T)[sp].d([m5C])[sp].d(A)[sp].[moe](G)p.[moe](G)p.[moe]([m5C])p.[moe](A)[sp].[moe](A)}$$$$ (last 3' nucleoside missing)”, the 3 h FOB score was 2 score 0-7.

As for “RNA1{[moe](A)[sp].[moe](G)p.[moe](G)p.[moe](A)p.[moe](T)p.d(T)[sp].d([m5C])[sp].d(A)[sp].d(A)[sp].d(T)[sp].d(A)[sp].d(G)[sp].d(T)[sp].d(G)[sp].d(T)[sp].[moe](A)p.[moe](G)p.[moe](G)[sp].[moe](T)}$$$$ (last 3' nucleoside missing)”, the 3 h FOB score was determined as 6.7 score 0-7.

“RNA1{[moe](T)[sp].[moe]([m5C])p.[moe](T)p.[moe](G)p.d([m5C])[sp].d(T)[sp].d([m5C])[sp].d(A)[sp].d(G)[sp].d(T)[sp].d(T)[sp].d(A)[sp].d(G)[sp].d(G)[sp].[moe](T)p.[moe](T)p.[moe](A)p.[moe](G)[sp].[moe](T)}$$$$ (last 3' nucleoside missing)” displayed a 3 h FOB score of 4 score 0-7.

The values are drawn from the OligoGym collection.
